Experimental data: patent US6455593B1, “Method of dynamic retardation of cell cycle kinetics to potentiate cell damage” (priority 1995, dated 2002)
Like-named read-outs stand apart in the source and are kept apart here.

What was measured:
p. falciparum W2 = assay: Parasite growth by 3H-hypoxanthine uptake in infected erythrocytes; type: cell-based; conditions: Plasmodium falciparum, W2, Erythrocyte, read-out: inhibitory concentrations (IC50), strain W2
p. falciparum D6 = assay: as above; type: cell-based; conditions: Plasmodium falciparum, D6, Erythrocyte, read-out: inhibitory concentrations (IC50), strain D6
U937 cells [1] = assay: Delayed proliferation assay (MTT 48 hr after washing)
Procedure: Microcultures treated with an agent or agents for a defined period (exactly as in Example 8) were washed. Seventy-five percent of the well volume was removed without disturbing the sedimented cells, and medium was added to yield a ⅕ dilution. In three additional washes and cell sedimentations, 50% of the medium was replaced such that the original concentration of agents was reduced to <5%. The metabolic mass of cells surviving or proliferating at 48 hr after the washings, including the untreated control cells, was then assayed by the MTT method (total elapsed time of 70 hours).
As an adjunct to the delayed proliferative assay, we utilized an “immediate plate” to quantitate the cell mass at the beginning of the experiment (N0=original cell mass). It required no more than a single column of microwells filled with 50 μl of growth medium each, and aliquots of cells in 50 μl identical to those transferred to the usual “test plate”. The immediate plate was incubated at 37° C. to complete the MTT assay for the same time as used for the test plate (i.e. 3 hr).
Taking the mean final cell mass at 70 hours as N, each data point represents a ratio of the mean cell mass of dThd-treated cells as fraction of N/N0. A ratio of N/N0=1 indicates no change in original cell mass (i.e. no growth of the targeted population). A ratio of N/N0>1 indicates overall growth of the targeted population. A ratio of N/N0<1 indicates overall population loss (cell killing).
Taking the mean final cell mass at 70 hours as N, positive percentages represent the % effective cytotoxicity (EC%) expressed as 1−N/N0 and converted to a percentage, in relation to concentration. Thus, EC obtained only for ratios of N/N0<1 (i.e. positive percentages).

[2] = system: human malignant lymphoma cells (U937); assay: Clonogenic assay in methylcellulose; type: cell-based
Description: Elimination of a targeted cell population by a cytotoxic agent or agent combinations can not be assured if cells with generative capacity survive. The clonogenic assay in soft agar or methylcellulose is a practical and useful means of determining long-term effects of cytotoxic agents on a malignant cell population, since malignant cells are often capable of growing and forming colonies in these media. The colony forming efficiency of any line or population of malignant cells must be established from the colony count in relationship to the inoculum number and varies over a wide range. […] (same protocol as Example 2A, Table 7). Methylcellulose (MC) solution 2.1-2.3% was obtained from Stem Cell Technologies in Vancouver, B.C. and made up in a series of sterile tubes: (a) 0.4 ml MC stock solution, (b) 50 μl of NuSerum, (c) 2×10^4 cells from the treated cell suspension from the 24-well plate (about 250 μl) and (d) complete growth medium to make a final volume of 1 ml (final cell density=about 2×10^4 cells). A syringe with 18 g. needle was used to transfer load 100 μl of each sample the final cell preparation to each of triplicate wells in a 96-well plate. Thus the final cell number was about 2,000 cells/well. Plates were examined daily for colony formation. At days 3-5, colonies were counted. and colonies were overlaid with MTT: 25 μl, incubated overnight at 37° C. and 100 μl of 4% formalin was added to aid visualization and photography. […] The effective cytotoxicity was calculated as 1−C/C0 where C=the number of colonies formed by a sample of treated cells and C0=the number of colonies formed by an equal sample of untreated cells.

U937 cells [3] = assay: Bivariate flow cytometry, dUTP terminal transferase labelling of DNA strand breaks; type: cell-based, human
Procedure: In a more sophisticated use of flow cytometry, DNA strand breaks were detected in nuclei by means of terminal transferase and homopolymer tailing as described by Gorczyca W. et al., Cancer Res 53:1945-1951 (1993). Samples of 1×10^6 cells were fixed in 1% buffered formaldehyde at 0° C. for 5 minutes, washed with PBS, resuspended in 70% ethanol and stored at […] for 48 hours. Cells were rehydrated in PBS, then suspended in 100 μl of cacodylate buffer and 2.5 mM CoCI2 to prepare them for the terminal transferase reaction. Biotin-labelled 16-dUTP and terminal transferase (Boehringer Mannheim, GmbH) were added to provide the final concentration of […] and 500 units/ml, respectively, and reacted with the cells at 37° C. for 30 minutes. Cells were rinsed in PBS, resuspended in a 4×saline-citrate buffer with 0.1% triton X100, 5% (w/v) non-fat powdered milk and 2.5 μg/ml FITC-labelled avidin, Boehringer Mannheim, supra, and incubated at room temperature for 30 minutes. Excess avidin-FITC was removed by washing the cells with PBS containing 0.1% triton X-100. In the cells with DNA damage, biotin-labelled dUTP was localized by the avidin-FITC: avidin and biotin form a strong linkage and reveal the extent of dUTP homopolymer tailing.
The amount of DNA per cell reflects the cell cycle position of each cell.

U937 cells [4] = assay: Flow cytometric cell cycle analysis (propidium iodide); type: cell-based, human; conditions: U937
Procedure: Flow cytometric analyses were performed with a Coulter Epics System (purchased from Coulter Corp, Hialeah, Fla.). Cells were disrupted in buffer with 0.1% Triton-X 100 (or 0.6 % NP-40), so that the nuclei could be stained with 0.05% propidium iodide (PI). See Shapiro N M, Practical Flow Cytometry, Man R Liss, NY (1988); Nicoletti I et al., J Immunol Methods 139:271-9 (1991). Analyses of 10,000 nuclei were performed with graduated concentrations of dThd at serial time points. Histograms of PI fluorescent emissions at 675±10 nm were used to discriminate cell cycle fractions of the target population. The proportion of cells in each phase of the cell cycle is represented by stack bars above the X-axis as a fraction of those cells with intact DNA structure. The fraction of cells with depleted DNA in each sample is represented below the X-axis as a percentage of the total cell number. Cells with depleted DNA are presumed apoptotic. Crompton S T et. al. Biophys. Biochem. Res. Comm. 183:532-537 (1992). Each stack bar in FIG. 5 represents the cell cycle distribution of a population sample of >10,000 cells, analyzed for each indicated dThd concentration at indicated treatment times.
Flow cytometric analyses were performed as in Example 2. The results are shown in plot A of FIG. 5 from Example 2.
The U937 cells were exposed to a range of concentrations below the IC40 and sampled for flow cytometry at intervals of 8, 16, and 24 hours. Flow cytometric analysis was performed as described in Example 2.

[5] = 24 hr after RBC infection, 3H-hypoxanthine uptake
[6] = Homo sapiens, U-937, 96 h, read-out: Maximum effective cytotoxicity (1-C/C0), clonogenic

## C[C@@]1(CO)[C@H](O)CC[C@@]2(C)[C@H]1CC[C@H]1C[C@@H]3C[C@@]12CC[C@]3(O)CO [Aph, aphidicolin]
p. falciparum W2; [5]
  IC50: 123 nM
p. falciparum D6; [5]
  IC50: 400 nM

## CN[C@@H]1C[C@H]2O[C@@](C)([C@@H]1OC)n1c3ccccc3c3c4c(c5c6ccccc6n2c5c31)C(=O)NC4 [STSP, staurosporine]
U937 cells [1]; 13 nM STSP in the presence of 0.5 mM dThd, 70 hours
  Effective cytotoxicity (1-N/N0): about 85%
U937 cells [1]; 25 nM STSP in the presence of 0.1 mM dThd, 70 hours
  Effective cytotoxicity (1-N/N0): about 85%
p. falciparum W2
  IC50: 150 nM
[2]; [6]
  Emax at 0.02 µM: 40 to 60%
[2]; optimal synergistic match of dThd and STSP, 96 hours
  Effective cytotoxicity, clonogenic: almost total cytotoxicity
p. falciparum D6
  IC50: 190 nM
U937 cells [3]; 4 hours of 0.2 mM dThd followed by 25 nM STSP for additional 7 hours
  dUTP labelling (DNA fragmentation): marked increase in the number of dUTP labelled cells
U937 cells [4]; 50 nM STSP, from 4 hours, shown at 8 hr and 24 hours
  Effect on cell cycle distribution: gradually accumulated in the G2 and M phases

## Cc1cn([C@H]2C[C@H](O)[C@@H](CO)O2)c(=O)[nH]c1=O [dThd, deoxythymidine]
U937 cells [1]; 0.1 mM dThd alone, FIG. 20
  Effect on cell growth: minimal effect on cell growth as compared to controls
U937 cells [1]; dThd alone, 70 hours
  Concentration for effective cytotoxicity of 40% (EC40): More than 3 mM
[2]; [6]
  Emax at 100 µM: 40 to 60%
U937 cells [3]; 3 mM dThd, 11 hours
  dUTP labelling (DNA fragmentation): appearance of cells with dUTP labelling, indicating DNA fragmentation
U937 cells [4]; 0.2 mM dThd
  Effect on cell cycle progression: permitted continuous cell transit
U937 cells [4]; 3 mM dThd
  Effect on cell cycle progression: arrested cell cycle progression at G1/S
